Source: ChEMBL document CHEMBL1201862, “PubChem BioAssay data set” (2004)
Calls of active or inactive are those of the source.

How the values were obtained:
[1] = insulin promoter down-regulators in MIN6 cells, imaging, high-content screening, mouse beta cells (AID 1628); type: functional
[2] = cytotoxicity in MIN6 insulinoma cells, dose response, cytotoxicity control, cell-based, mouse insulinoma (AID 2122); type: functional;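 further: confirmatory high-throughput counterscreen run to flag cytotoxic compounds; mouse MIN-6 beta cells carrying an insulin promoter eGFP reporter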
[3] = Shn3 3'UTR reporter inhibitors, dose response, cell-based, Clone20 osteoblasts, firefly luciferase, cherry-picked (AID 624132); type: functional;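 further: firefly luciferase luminescence from reporter carrying the Shn3 3'UTR in osteoblasts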
[4] = HepG2 cell cytotoxicity, dose response, cytotoxicity control for Shn3 inhibitor project, CellTiter-Glo, cherry-picked (AID 624134); type: functional, cell-based
[5] = control 3'UTR Renilla luciferase suppression, dose response, counter-screen for Shn3 inhibitor project, cell-based, Clone20-Shn3RL, cherry-picked (AID 624133); type: functional
Estrogen receptor = target: T1, Estrogen receptor (Homo sapiens, UniProt P03372);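 further: potency for inhibiting coactivator peptide recruitment to the receptor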
T1 sequence (P03372 whole entry): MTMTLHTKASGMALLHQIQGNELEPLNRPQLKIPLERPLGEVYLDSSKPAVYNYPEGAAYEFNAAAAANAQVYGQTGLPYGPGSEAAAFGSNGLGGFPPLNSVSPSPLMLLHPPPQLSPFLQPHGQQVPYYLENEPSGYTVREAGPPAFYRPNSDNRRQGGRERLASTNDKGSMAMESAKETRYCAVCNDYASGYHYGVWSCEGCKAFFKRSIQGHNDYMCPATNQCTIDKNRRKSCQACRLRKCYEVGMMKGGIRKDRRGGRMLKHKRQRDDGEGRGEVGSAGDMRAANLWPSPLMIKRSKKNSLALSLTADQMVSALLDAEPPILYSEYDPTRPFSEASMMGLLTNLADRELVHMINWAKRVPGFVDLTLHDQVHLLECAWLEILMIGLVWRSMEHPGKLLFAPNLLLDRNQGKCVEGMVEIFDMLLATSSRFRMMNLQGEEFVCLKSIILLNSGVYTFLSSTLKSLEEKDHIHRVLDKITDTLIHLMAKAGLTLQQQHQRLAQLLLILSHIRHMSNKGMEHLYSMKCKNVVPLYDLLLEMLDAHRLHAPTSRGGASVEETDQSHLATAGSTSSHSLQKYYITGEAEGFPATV

[6] = target: T2, Endoribonuclease toxin MazF (Escherichia coli K-12, UniProt P0AE70); assay: MazF toxin RNase activators, dose response, biochemical, fluorescence, single-stranded RNA substrate, uHTS hits (AID 588481); type: functional
T2 sequence (P0AE70 whole entry): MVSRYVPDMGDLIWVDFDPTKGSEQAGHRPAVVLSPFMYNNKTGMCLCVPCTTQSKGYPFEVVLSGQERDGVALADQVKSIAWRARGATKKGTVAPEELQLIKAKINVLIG

[7] = target: T2, Endoribonuclease toxin MazF; assay: fluorescent RNA oligo signal without MazF, dose response, counter-screen for MazEF activator project, biochemical, fluorescence, single-stranded RNase substrate (AID 588502); type: functional
Cytochrome P450 2C19 = Cytochrome P450 2C19 (Homo sapiens, UniProt P33261); assay: Cytochrome panel assay with activity outcomes. Panel member name: p450-cyp2c19 Compounds with AC50 equal or less than 10 uM are considered active; type: functional; settings: read-out: AC50
Chain of Cytochrome P450 2C19 (P33261 whole entry): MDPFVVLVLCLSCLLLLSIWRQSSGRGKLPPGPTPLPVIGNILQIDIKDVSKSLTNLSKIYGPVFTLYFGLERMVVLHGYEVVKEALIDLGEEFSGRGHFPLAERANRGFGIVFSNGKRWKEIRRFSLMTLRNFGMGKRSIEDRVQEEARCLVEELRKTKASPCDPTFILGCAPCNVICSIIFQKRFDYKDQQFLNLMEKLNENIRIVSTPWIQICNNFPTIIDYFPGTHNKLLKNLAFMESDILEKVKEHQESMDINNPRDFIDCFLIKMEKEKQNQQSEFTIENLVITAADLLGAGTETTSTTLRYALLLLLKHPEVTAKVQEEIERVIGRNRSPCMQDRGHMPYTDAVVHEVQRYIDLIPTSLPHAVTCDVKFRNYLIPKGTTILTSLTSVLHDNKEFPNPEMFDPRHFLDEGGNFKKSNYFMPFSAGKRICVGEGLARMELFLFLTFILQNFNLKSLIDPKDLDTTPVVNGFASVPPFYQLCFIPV

Cytochrome P450 3A4 [8] = target: T3, Cytochrome P450 3A4 (Homo sapiens, UniProt P08684);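 further: CYP3A4 tested as one member of a cytochrome P450 panel screen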
T3 sequence (P08684 whole entry): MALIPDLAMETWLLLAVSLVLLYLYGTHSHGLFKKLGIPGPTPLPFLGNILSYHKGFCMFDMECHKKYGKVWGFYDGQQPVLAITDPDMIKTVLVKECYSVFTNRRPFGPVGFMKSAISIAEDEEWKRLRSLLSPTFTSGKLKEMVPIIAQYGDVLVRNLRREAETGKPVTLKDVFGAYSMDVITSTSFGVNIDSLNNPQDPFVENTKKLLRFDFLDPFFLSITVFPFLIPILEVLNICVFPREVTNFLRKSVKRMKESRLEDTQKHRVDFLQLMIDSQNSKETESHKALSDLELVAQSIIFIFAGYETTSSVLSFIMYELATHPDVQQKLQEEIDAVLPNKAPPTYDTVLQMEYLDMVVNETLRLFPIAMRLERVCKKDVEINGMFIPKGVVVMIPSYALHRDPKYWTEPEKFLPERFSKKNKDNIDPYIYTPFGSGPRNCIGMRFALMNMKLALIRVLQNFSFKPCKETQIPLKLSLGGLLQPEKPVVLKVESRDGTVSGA

Cytochrome P450 1A2 = target: T4, Cytochrome P450 1A2 (Homo sapiens, UniProt P05177);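 further: PubChem cytochrome P450 panel assay, CYP1A2 panel member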
T4 sequence (P05177 whole entry): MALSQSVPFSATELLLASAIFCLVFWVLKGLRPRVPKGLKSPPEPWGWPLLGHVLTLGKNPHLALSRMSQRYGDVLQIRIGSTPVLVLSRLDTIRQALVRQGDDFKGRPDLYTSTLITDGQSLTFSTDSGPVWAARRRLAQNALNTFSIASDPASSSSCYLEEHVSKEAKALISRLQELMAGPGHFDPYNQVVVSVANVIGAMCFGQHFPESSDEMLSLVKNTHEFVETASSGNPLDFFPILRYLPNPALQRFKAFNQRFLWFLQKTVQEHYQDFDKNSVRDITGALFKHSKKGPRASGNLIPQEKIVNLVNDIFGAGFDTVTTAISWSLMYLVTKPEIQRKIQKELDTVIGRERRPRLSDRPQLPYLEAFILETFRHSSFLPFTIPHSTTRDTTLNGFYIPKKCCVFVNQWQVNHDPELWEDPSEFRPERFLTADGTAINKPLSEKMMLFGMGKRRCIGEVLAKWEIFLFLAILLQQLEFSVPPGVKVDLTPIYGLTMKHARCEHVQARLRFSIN

Cytochrome P450 2C9 = Cytochrome P450 2C9 (Homo sapiens, UniProt P11712)
Chain of Cytochrome P450 2C9 (P11712 whole entry): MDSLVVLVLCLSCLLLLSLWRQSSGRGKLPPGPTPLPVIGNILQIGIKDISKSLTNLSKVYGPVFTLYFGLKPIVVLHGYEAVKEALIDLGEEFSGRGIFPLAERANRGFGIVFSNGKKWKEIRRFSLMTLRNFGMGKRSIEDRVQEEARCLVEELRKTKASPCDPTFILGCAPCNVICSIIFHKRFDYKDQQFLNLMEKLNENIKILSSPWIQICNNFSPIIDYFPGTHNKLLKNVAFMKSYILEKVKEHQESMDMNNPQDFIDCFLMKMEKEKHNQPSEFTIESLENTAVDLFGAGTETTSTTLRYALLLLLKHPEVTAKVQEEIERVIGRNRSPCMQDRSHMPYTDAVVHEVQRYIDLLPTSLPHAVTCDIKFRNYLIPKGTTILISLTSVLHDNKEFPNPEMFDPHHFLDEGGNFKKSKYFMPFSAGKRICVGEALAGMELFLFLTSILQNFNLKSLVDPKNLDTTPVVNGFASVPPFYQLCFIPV

[9] = THP-1 cell cytotoxicity, dose response, cytotoxicity control for non-replicating M. tuberculosis project (AID 489025); type: functional
[10] = Vero E6 cell cytotoxicity, dose response, cytotoxicity control for non-replicating M. tuberculosis project, secondary assay (AID 492998); type: functional, VeroE6; settings: Vero C1008
cells = type: functional
Cytochrome P450 2D6 = Cytochrome P450 2D6 (Homo sapiens, UniProt P10635);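 further: CYP2D6 member of a cytochrome P450 panel assay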
[11] = target: T5, Polyadenylate-binding protein 1 (Homo sapiens, UniProt P11940); assay: PABP1 MLLE–PAM2 interaction inhibitors, dose response, miRNA deadenylation inhibitor project, biochemical, fluorescence polarization, Cy5-PAM2 peptide, secondary (AID 602260); type: functional; settings: read-out: IC50_Mean
T5 sequence (P11940 whole entry): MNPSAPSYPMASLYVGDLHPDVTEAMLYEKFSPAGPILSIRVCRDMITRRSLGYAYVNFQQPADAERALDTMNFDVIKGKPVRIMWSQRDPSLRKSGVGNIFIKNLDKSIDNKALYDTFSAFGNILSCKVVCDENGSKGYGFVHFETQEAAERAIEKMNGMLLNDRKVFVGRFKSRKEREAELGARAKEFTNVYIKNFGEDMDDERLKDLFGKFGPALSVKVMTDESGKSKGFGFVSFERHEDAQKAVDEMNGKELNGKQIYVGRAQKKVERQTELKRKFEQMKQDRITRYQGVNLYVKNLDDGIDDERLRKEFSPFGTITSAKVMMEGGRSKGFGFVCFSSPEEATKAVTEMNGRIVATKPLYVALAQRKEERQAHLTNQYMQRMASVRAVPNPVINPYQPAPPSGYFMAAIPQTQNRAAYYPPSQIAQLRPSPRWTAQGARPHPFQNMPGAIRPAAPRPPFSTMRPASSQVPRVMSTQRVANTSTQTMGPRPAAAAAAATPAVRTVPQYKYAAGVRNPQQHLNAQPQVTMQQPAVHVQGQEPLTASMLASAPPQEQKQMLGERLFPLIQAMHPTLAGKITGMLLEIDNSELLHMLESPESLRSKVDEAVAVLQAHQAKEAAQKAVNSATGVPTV

[12] = target: T5, Polyadenylate-binding protein 1; assay: PABP1 MLLE–PAM2 binding inhibitor potency, dose response, biochemical, fluorescence polarization, FITC-PAM2 peptide (AID 602259); type: functional; settings: read-out: IC50_Mean
Fatty acid synthase [13] = target: T6, Fatty acid synthase (Homo sapiens, UniProt P49327); assay: FAS thioesterase domain inhibitors, dose response, biochemical, endpoint fluorescence intensity, uHTS hits (AID 624327); type: functional;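 further: fluorescence from hydrolysis of an O-methyl fluorescein acyl ester substrate by the enzyme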
T6 sequence (P49327 whole entry, the tested form may be a part): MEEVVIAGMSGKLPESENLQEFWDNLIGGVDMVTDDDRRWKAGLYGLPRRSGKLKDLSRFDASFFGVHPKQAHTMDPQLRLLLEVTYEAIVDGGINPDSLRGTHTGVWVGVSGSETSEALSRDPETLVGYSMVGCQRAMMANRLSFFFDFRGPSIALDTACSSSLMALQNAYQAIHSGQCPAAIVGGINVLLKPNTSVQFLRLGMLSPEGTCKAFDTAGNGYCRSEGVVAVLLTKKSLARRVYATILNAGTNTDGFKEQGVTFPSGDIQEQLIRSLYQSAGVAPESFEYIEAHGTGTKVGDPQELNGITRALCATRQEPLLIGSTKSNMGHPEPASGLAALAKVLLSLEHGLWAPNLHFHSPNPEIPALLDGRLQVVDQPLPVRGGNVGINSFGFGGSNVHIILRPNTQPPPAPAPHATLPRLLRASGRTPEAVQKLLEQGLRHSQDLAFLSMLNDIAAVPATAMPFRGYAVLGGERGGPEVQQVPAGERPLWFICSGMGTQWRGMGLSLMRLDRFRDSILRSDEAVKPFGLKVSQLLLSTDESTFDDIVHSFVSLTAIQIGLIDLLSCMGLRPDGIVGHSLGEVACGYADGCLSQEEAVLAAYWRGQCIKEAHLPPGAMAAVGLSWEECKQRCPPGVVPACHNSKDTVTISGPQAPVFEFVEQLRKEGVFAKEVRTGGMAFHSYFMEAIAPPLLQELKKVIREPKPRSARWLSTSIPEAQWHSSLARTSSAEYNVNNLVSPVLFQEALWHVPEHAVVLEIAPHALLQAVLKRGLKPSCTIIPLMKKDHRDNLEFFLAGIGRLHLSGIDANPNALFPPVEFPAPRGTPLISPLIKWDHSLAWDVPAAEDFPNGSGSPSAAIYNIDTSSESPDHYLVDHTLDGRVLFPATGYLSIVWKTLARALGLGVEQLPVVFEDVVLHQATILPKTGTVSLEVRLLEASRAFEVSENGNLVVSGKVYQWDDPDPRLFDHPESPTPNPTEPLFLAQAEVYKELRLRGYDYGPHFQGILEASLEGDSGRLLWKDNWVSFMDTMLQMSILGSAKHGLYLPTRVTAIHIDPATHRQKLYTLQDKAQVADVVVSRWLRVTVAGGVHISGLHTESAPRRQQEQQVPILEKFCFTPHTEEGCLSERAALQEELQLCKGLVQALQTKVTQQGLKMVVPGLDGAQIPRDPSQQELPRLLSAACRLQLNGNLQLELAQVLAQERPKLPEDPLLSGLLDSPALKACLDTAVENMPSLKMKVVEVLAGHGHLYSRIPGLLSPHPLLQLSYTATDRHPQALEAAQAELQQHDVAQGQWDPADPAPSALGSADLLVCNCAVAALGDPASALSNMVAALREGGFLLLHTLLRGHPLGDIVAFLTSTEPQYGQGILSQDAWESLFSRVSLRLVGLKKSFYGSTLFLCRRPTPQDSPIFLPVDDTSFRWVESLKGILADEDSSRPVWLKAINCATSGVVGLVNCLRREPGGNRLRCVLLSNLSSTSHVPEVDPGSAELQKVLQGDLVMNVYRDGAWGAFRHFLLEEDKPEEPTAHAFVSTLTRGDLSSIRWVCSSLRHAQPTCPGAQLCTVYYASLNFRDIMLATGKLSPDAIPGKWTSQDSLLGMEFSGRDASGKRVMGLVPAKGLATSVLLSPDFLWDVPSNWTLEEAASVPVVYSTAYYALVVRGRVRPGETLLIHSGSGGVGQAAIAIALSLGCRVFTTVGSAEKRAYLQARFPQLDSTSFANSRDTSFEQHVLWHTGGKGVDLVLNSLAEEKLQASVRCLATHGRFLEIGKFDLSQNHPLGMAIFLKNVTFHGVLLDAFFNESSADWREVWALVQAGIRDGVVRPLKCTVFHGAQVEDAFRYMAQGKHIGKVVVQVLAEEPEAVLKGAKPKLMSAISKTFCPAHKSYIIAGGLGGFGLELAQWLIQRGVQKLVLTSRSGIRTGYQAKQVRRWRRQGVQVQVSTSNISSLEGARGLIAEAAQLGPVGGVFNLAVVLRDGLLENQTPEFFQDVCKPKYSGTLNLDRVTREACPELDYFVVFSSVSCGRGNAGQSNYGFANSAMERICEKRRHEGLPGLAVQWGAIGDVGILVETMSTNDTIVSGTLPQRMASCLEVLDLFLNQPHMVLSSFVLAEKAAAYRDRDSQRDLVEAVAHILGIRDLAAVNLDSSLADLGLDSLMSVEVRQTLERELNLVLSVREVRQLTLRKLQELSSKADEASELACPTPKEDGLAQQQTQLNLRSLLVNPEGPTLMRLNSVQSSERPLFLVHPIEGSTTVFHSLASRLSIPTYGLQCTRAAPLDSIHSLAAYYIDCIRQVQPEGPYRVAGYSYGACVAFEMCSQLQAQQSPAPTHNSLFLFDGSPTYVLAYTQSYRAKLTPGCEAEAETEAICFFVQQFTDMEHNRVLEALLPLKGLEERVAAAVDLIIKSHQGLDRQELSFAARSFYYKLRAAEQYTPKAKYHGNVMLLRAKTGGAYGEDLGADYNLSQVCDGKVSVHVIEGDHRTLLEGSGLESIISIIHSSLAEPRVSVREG

Fatty acid synthase [14] = target: T6, Fatty acid synthase; assay: FAS thioesterase domain inhibitors, dose response, biochemical, kinetic fluorescence intensity (AID 624326); type: functional;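 further: rate of fluorescence rise from hydrolysis of a fluorogenic O-methyl fluorescein ester substrate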
Cytochrome P450 3A4 [15] = target: T3, Cytochrome P450 3A4; remark: listed apart in the source

Cn1c(=O)n(C)c2cc([N+](=O)[O-])c(N3CCN(S(=O)(=O)c4ccc(C(C)(C)C)cc4)CC3)cc21
IC50 [1]: 2.73 µM (active)
IC50 [2]: 4.02 µM (active)
AC50 [3]: 3.53 µM (active)
AC50 [4]: > 70 µM (inactive)
AC50 [5]: 9.33 µM (active)

COc1cc(NC(=O)COc2ccc(-n3cnnn3)cc2)c(OC)cc1Cl
IC50 (Estrogen receptor): 8.31 µM (active)

O=C(Nc1cc[n+](-c2nc3ccccc3nc2[N-]S(=O)(=O)c2ccc(Cl)cc2)cc1)c1cccs1
EC50 [6]: > 99 µM (inactive)
EC50 [7]: > 99 µM (inactive)

C[C@H](N[C@@H](C)CCc1ccccc1)[C@H](O)c1ccc(O)cc1
AC50 (Cytochrome P450 2C19): 10 µM (inconclusive)
AC50 (Cytochrome P450 3A4 [8]): inconclusive

N#CCCn1c(=O)cnc2cnc(N3CCNCC3)nc21
AC50 (Cytochrome P450 1A2): 12.6 µM (inconclusive)
AC50 (Cytochrome P450 2C9): inconclusive

COc1ccc(-n2c(SCC(=O)Nc3ccc4c(c3)OCO4)nnc2C(C)N2CCCCC2)cc1 (stereo unspecified)
IC50 (Estrogen receptor): > 50 µM (not active)

CCOc1ccc(C(C)=O)cc1N1C(=O)C2C3C=CC(O3)C2C1=O (stereo unspecified)
AC50 (Cytochrome P450 2C19): 39.8 µM (inconclusive)
AC50 (Cytochrome P450 2C9): inconclusive

O=S(=O)(c1cccc2nsnc12)N1CCCC1
AC50 (Cytochrome P450 1A2): 14.1 µM (inconclusive)
AC50 (Cytochrome P450 3A4 [8]): inconclusive

O=C(OCCNc1ccc(C(F)(F)F)cc1[N+](=O)[O-])c1cc2ccccc2oc1=O
EC50 [6]: 27.7 µM (inactive)
EC50 [7]: 89.7 µM (inactive)

Cc1cc(C)c2nc(N=C(N)NC(=O)Nc3ccccc3)nc(C)c2c1
CC50 [9]: > 40 µM (active)
CC50 [10]: > 20 µM (active)
IC50 (cells): 8.18 µM (active)

CC(C)(C)n1ncc2c(=O)n(CC(=O)NCc3ccccc3Cl)cnc21
AC50 (Cytochrome P450 2D6): 11.2 µM (inconclusive)
AC50 (Cytochrome P450 2C9): inconclusive

Cc1ccc(NC(=O)CC2SC3=NCCN3C2=O)cc1 (stereo unspecified)
IC50 [11]: > 66 µM (inactive)
IC50 [12]: > 66 µM (inactive)

NC(=O)CSc1nnc(-c2cc(-c3cccs3)nc3ccccc23)o1
EC50 [6]: > 99 µM (inactive)
EC50 [7]: > 99 µM (inactive)

CC1=C(CC[C@H](C)CO)O[C@@H]2C[C@@H]3[C@H]4CC[C@H]5C[C@@H](O)CC[C@]5(C)[C@@H]4CC(=O)[C@@]3(C)[C@@H]12
AC50 (Cytochrome P450 3A4 [8]): inconclusive

Cc1ccc(-c2nn3c(C)nnc3s2)cc1NCc1c(F)cccc1Cl
IC50 [1]: 3.44 µM (active)
IC50 [2]: 5.76 µM (active)

O=C(c1ccc([N+](=O)[O-])cc1)N1CCC(Cc2ccccc2)CC1
IC50 (Fatty acid synthase [13]): 10.9 µM (active)
IC50 (Fatty acid synthase [14]): 8.61 µM (active)

O=c1[nH]n(-c2cccc3cccnc23)c(=O)c2ccccc12
AC50 (Cytochrome P450 1A2): 6.31 µM (inconclusive)
AC50 (Cytochrome P450 3A4 [15]): 25.1 µM (inconclusive)
AC50 (Cytochrome P450 2C9): inconclusive
